# Data: patent US11707474B2, “Methods for treating acute myeloid leukemia and related conditions” (GlycoMimetics, Inc., priority 2018, dated 2023)
# Like-named read-outs stand apart in the source and are kept apart here.
# Legend:
# [1] = Pharmacokinetics of weight-based doses in AML subjects; format: in vivo, human; conditions: for AUC, Mean / AUC, Median: dose 13 to dose 15; for Cmax: human, plasma, intravenous
# Procedure: Three cohorts of 6-7 human subjects with acute myeloid leukemia (AML) each received a total of 15 infusions of 5, 10, or 20 mg/kg/dose over 8 days with a nominal infusion duration of 20 minutes. The first dose of a compound of Formula (I), was administered 24 hours±1 hour prior to the first dose of MEC (mitoxantrone, etoposide, and cytarabine) induction chemotherapy as a sentinel dose to evaluate the effect of the compound of Formula (I) alone, and then every 12 hours±1 hour on chemotherapy days, starting 2 hours prior to chemotherapy. […] MEC chemotherapy was administered on Days 2-6. Samples were obtained pre-dose, on Day 1, Day 3, Day 8, Day 9, and Day 10 (where Day 1 refers to the first day of dosing with a compound of Formula (I)).
# [2] = test system: U937; assay: Systemic U-937 AML mouse survival model; format: in vivo, NOD/SCID mouse
# Procedure: A compound of Formula (I) in combination with cytarabine/DNR chemotherapy was evaluated in the systemic U-937 AML NOD/SCID mouse survival model.
# The U937 cell line was chosen because the cells express the E-selectin ligand and react with antibody HECA-452. After engraftment, mice were randomized into 4 groups (n=10/group) and treatment was initiated. The groups included a saline control group; a group administered the compound of Formula (I) at 40 mg/kg BID (i.e., 80 mg/kg per day) for 9 days, a group administered cytarabine at 300 mg/kg QD (i.e., 300 mg/kg per day) for 3 days and a single dose of DNR at 3 mg/kg; and a group administered the combined regimen of the compound of Formula (I) and chemotherapy (cytarabine and DNR).
# [3] = Exposure-response analysis for adverse events; format: in vivo, human; conditions: 53 R/R and 25 newly diagnosed older AML subjects, with chemotherapy
# Procedure: For Example 15, Exposure-Response (“E-R”) analysis evaluating adverse events against PK metrics was conducted. The sample population for Example 15 included 53 subjects with relapsed/refractory (R/R) AML and 25 older subjects (aged 60 years or older) with newly diagnosed AML. R/R AML subjects were administered MEC chemotherapy and 5, 10, and 20 mg/kg of a compound of Formula (I) BID (i.e., 10, 20, and 40 mg/kg per day). The older subjects (aged 60 years or older) with newly diagnosed AML were administered 7+3 chemotherapy and 10 mg/kg of a compound of Formula (I) BID (i.e., 20 mg/kg per day).
# Exposure metrics for the adverse events (“AE”) analysis were generated using the same Pop-PK model described in Example 14. […] Cumulative AUC was determined through each study day. For each metric/day combination, percentile rankings and normalized values were determined. For example, the median of Day 6 AUC values was determined, and normalized values were obtained by dividing each value by the median. In addition, these Day 6 AUC values were ranked, and then multiplied by 100% divided by the number of values to obtain a percentile value.
# Adverse events (“AEs”) were classified according the Common Terminology Criteria for Adverse Events (“CTCAE”). […]
smiles,measurement,setting,value
CC[C@@H]1CC(C(=O)NCCNC(=O)CCOCCOCCOCCOCCOCCOCCOCCOCCOCCOCCOCCOC)C[C@@H](O[C@@H]2O[C@@H](CO)[C@H](O)C(O[C@@H](CC3CCCCC3)C(=O)O)C2NC(C)=O)C1OC1O[C@@H](C)C(O)[C@H](O)[C@@H]1O (stereo partly shown) [compound of Formula (I)],"AUC, Mean",[1]; 5 mg/kg/dose,5.21 µg·days/mL
same,"AUC, Median",[1]; 5 mg/kg/dose,4.83 µg·days/mL
same,"AUC, Mean",[1]; 10 mg/kg/dose,9.63 µg·days/mL
same,"AUC, Median",[1]; 10 mg/kg/dose,9.63 µg·days/mL
same,"AUC, Mean",[1]; 20 mg/kg/dose,20.43 µg·days/mL
same,"AUC, Median",[1]; 20 mg/kg/dose,19.33 µg·days/mL
same,Cmax,"[1]; 5 mg/kg, 5 mg/kg/dose, read-out: Cmax, Mean",38.5 µg/mL
same,Cmax,"[1]; 5 mg/kg, 5 mg/kg/dose, read-out: Cmax, Median",36.3 µg/mL
same,Cmax,"[1]; 10 mg/kg, 10 mg/kg/dose, read-out: Cmax, Mean",79.6 µg/mL
same,Cmax,"[1]; 10 mg/kg, 10 mg/kg/dose, read-out: Cmax, Median",76.2 µg/mL
same,Cmax,"[1]; 20 mg/kg, 20 mg/kg/dose, read-out: Cmax, Mean",167 µg/mL
same,Cmax,"[1]; 20 mg/kg, 20 mg/kg/dose, read-out: Cmax, Median",153 µg/mL
same,survival,[2]; 40 mg/kg BID 9 days alone,does not extend survival beyond saline control
same,median survival time (MST),[2]; 40 mg/kg BID 9 days combined with cytarabine/DNR,greater than 120 days
same,animals surviving to the end of the study,"[2]; 40 mg/kg BID 9 days combined with cytarabine/DNR, n=10/group",five
same,"adverse events vs exposure (AUC, cumulative AUC, Cmax)",[3],"no strong tendency toward increased AEs, nor increased severity of AEs with exposure"
